Measured values reported in ChEMBL document CHEMBL5506018, “Discovery and Mechanistic Studies of Dual-Target Hits for Carbonic Anhydrase IX and VEGFR-2 as Potential Agents for Solid Tumors: X-ray, In Vitro, In Vivo, and In Silico Investigations of Coumarin-Based Thiazoles” (J Med Chem, 2024).

Experiments:
[1] = biological target: T1, Carbonic anhydrase 1 (Homo sapiens, UniProt P00915); experiment: Inhibition of human CA1 by stopped flow CO2 hydrase assay
[2] = biological target: T2, Vascular endothelial growth factor receptor 2 (Homo sapiens, UniProt P35968); experiment: Inhibition of hypoxia induced VEGFR-2 (unknown origin)
[3] = biological target: T1, Carbonic anhydrase 1
Description: Inhibition of human CA1 preincubated for 6 hrs by phenol red staining based stopped flow CO2 hydrase assay

[4] = biological target: T2, Vascular endothelial growth factor receptor 2; experiment: Inhibition of VEGFR-2 (unknown origin)
[5] = tested on: PANC-1; experiment: Cytotoxicity against human PANC-1 cells under hypoxia condition by MTT assay; type: functional, cell-based
[6] = tested on: Ehrlich; settings: dose 5 mg/kg; route ip; time 14 day
Description: Antitumor activity against mouse EAC cells implanted in Swiss albino mouse assessed as T/C ratio at 5 mg/kg, ip measured on day 5, 10 and 14

[7] = Cytotoxicity against African green monkey Vero cells under hypoxic condition by MTT assay; settings: African green monkey (Chlorocebus sabaeus)
[8] = tested on: Ehrlich; experiment: animal or person; settings: Mus musculus, 336 h, read-out: GI

T2 sequence (P35968 whole entry): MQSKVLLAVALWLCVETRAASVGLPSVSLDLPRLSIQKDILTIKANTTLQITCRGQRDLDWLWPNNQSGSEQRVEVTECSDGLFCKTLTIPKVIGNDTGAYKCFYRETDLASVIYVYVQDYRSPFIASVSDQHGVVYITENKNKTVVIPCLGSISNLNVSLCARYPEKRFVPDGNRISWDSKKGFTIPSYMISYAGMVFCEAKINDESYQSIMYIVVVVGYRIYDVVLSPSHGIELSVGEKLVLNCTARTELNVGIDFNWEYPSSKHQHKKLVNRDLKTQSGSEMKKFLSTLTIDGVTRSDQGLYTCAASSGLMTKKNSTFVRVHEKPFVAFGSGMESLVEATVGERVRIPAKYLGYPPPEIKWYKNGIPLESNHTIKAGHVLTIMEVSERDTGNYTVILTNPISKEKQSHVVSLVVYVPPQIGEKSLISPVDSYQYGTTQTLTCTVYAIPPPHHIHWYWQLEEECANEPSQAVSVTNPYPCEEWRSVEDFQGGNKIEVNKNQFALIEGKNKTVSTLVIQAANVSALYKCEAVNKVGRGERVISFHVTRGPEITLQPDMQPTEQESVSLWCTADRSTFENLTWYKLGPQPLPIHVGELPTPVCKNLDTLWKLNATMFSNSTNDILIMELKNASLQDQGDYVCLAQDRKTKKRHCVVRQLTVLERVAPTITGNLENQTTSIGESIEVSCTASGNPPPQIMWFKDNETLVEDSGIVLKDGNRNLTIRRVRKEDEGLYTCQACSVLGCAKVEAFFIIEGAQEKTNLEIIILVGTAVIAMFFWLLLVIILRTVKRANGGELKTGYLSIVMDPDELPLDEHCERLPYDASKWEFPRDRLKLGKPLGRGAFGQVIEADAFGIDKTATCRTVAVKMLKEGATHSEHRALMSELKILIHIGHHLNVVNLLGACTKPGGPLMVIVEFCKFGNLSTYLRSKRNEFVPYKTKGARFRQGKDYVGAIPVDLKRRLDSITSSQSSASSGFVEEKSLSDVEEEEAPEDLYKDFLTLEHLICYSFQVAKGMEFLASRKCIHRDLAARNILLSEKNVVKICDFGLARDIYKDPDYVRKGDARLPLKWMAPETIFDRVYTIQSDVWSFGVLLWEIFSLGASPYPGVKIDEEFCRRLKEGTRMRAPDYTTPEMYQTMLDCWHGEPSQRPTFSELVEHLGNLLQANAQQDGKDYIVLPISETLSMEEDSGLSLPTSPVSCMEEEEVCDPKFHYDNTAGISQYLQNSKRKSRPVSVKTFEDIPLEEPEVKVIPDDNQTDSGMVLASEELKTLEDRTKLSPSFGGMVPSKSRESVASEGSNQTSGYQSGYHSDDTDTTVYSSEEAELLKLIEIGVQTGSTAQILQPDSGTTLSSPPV
T1 sequence (P00915 whole entry): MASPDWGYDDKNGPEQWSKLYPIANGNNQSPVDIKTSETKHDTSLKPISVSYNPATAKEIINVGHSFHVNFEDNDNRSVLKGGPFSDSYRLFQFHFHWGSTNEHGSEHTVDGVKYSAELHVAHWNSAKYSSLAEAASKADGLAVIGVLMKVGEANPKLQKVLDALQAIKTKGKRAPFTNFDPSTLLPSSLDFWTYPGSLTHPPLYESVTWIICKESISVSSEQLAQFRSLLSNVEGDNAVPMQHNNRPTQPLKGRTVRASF

Row | SMILES | Ki [3] [µM] | also measured
1 | Cc1nc(-c2cc3ccccc3oc2=O)ccc1C(=O)/C=C/c1cccs1 |  | Ki [1]: 1.1 µM
2 | CCOc1cccc2cc(/C(C)=N/Nc3nc(-c4ccccc4)cs3)c(=O)oc12 | > 100 | IC50 [2]: 0.0686 µM
3 | CCOc1cccc2cc(/C(C)=N/Nc3nc(-c4ccc(Cl)cc4)cs3)c(=O)oc12 | > 100 | 
4 | C/C(=N\NC(=S)Nc1ccc(Br)cc1)c1cc2ccccc2oc1=O |  | IC50 [4]: 0.082 µM
5 | CCOc1cccc2cc(/C(C)=N/Nc3nc(-c4ccc(C)cc4)cs3)c(=O)oc12 | > 100 | 
6 | O=C(CN1C(=O)S/C(=C\c2cccs2)C1=O)c1cc2ccccc2oc1=O | > 100 | 
7 | CCOc1cccc2cc(/C(C)=N/Nc3nc(-c4ccc([N+](=O)[O-])cc4)cs3)c(=O)oc12 | > 100 | 
8 | CCOc1cccc2cc(/C(C)=N/Nc3nc(-c4ccc(Br)cc4)cs3)c(=O)oc12 | > 100 | 
9 | COc1cccc2c1C(=O)c1c(O)c3c(c(O)c1C2=O)C[C@@](O)(C(=O)CO)C[C@@H]3O[C@H]1C[C@H](N)[C@H](O)[C@H](C)O1 [DOXORUBICIN] |  | IC50 [5]: 6.9 µM; T/C [6]: 40.89; IC50 [7]: 8.7 µM; inhibition in vivo at 5 mg/kg [8]: 67%

Further lines, with some results ahead:

Row | Ki [3] [µM] | SMILES | also measured
10 | > 100 | CCOc1cccc2cc(/C(C)=N/Nc3nc(-c4ccc(OC)cc4)cs3)c(=O)oc12 | IC50 [2]: 0.0348 µM
11 | > 100 | CCOc1cccc2cc(/C(C)=N/Nc3nc(-c4cc5cccc(OCC)c5oc4=O)cs3)c(=O)oc12 | 
12 | > 100 | CCOc1cccc2cc(/C(C)=N/Nc3nc(-c4cc5cc(Br)ccc5oc4=O)cs3)c(=O)oc12 | 
13 | > 100 | CCOc1cccc2cc(/C(C)=N/Nc3nc(-c4cc5ccc(OC)cc5oc4=O)cs3)c(=O)oc12 | 
14 | > 100 | CCOc1cccc2cc(/C(C)=N/Nc3nc(-c4ccc(F)cc4)cs3)c(=O)oc12 | IC50 [2]: 0.0321 µM
